Experimental data reported in PMC11279551, “Pharmacokinetics and Enterohepatic Circulation of 2-(Quinoline-8-carboxamido)benzoic Acid (2-QBA) in Mice” (Pharmaceutics, 2024).

Experiments:
[1] = Urinary and fecal excretion after IV or PO administration (metabolic cage); format: in vivo; conditions: mice, IV 1.0 mg/kg
Protocol: We also investigated the excretion profile of 2-QBA after IV and PO administration at doses of 1 mg/kg for IV and 2 mg/kg for PO. After IV or PO administration of 2-QBA, the mice were returned to a metabolic cage to collect the urine and feces samples. The urine and feces samples were collected during the periods of 0–24 h, 24–48 h, 48–72 h, and 72–96 h. The urine ball was washed using equal volumes of methanol and added to the urine samples. The fecal samples were homogenized with 9 volumes of water to yield 10% fecal homogenates. The aliquots (30 μL) of urine and 10% fecal homogenate samples were stored at −80 °C until the analysis of the 2-QBA. For the analysis of the 2-QBA, 120 μL of IS solution was added to the 30 μL aliquot of urine and 10% fecal homogenate samples. The mixture was vigorously vortexed for 5 min and then centrifuged at 13,000× g for 5 min. The supernatant was transferred to autosampler vials. Subsequently, a 3 μL aliquot was injected into the LC-MS/MS system.
WinNonlin 5.1 software (Pharsight Co., Mountain View, CA, USA) was used to calculate the pharmacokinetic parameters. AUClast and AUCinf indicate the areas under the plasma concentration curve from 0 h to the last sample and from 0 h to infinity, respectively; these were estimated using the linear trapezoidal method. T1/2 is the elimination half-life, which is estimated from the elimination coefficient (k) (i.e., 0.693/k), and MRT is the mean residence time. CL is the total clearance, which is calculated by dividing the dose by AUCinf. Vdss is the volume of the distribution at a steady state, calculated from MRTxCL. CLrenal and CLfeces are calculated by dividing the amount excreted in urine and feces by the AUCinf, respectively. CLmetabolism is calculated by subtracting CLrenal and CLfeces from CL. […] BA is calculated by dividing the dose-normalized AUCinf for PO administration (AUCinf/PO dose) by the dose-normalized AUCinf for IV administration (AUCinf/IV dose). All data are expressed as the mean ± standard deviation (SD).

[2] = Intestinal permeability in Ussing chamber; format: in vitro ADME, mice; conditions: upper and lower ileum
Protocol: The small intestines were isolated from fasted mice under isoflurane anesthesia (1–3% with oxygen gas flow) and dissected into three parts, the jejunum, upper ileum, and lower ileum. […] The intestinal permeability of 2-QBA was assessed by adding 0.5 mL of HBSS containing 20 μM of 2-QBA on the donor side and 0.5 mL of fresh HBSS on the receiver side. Then, a 100 μL aliquot was withdrawn from the receiver side every 30 min for 2 h and an equal volume of pre-warmed fresh HBSS was added to replenish the lost volume. To analyze the 2-QBA, 100 μL aliquots were mixed with 4 volumes of IS solution (1 ng/mL berberine in acetonitrile). The mixture was vigorously vortexed for 5 min and then centrifuged at 13,000× g for 5 min. The supernatant was transferred to autosampler vials. Subsequently, a 3 μL aliquot was injected into the LC-MS/MS system.

Plasma protein binding = format: in vitro ADME; conditions: n = 6, read-out: plasma protein binding rate (converted)
[3] = Stability of 2-QBA in mouse plasma (QC samples); format: in vitro ADME; conditions: for Freeze-thaw cycle stability, Accuracy / Bench-top stability, Accuracy: mouse plasma; for Freeze-thaw cycle stability, Accuracy: 3 cycles; for Bench-top stability, Accuracy: 25 °C for 6 h; for Autosampler stability, Accuracy: prepared plasma samples, 6 °C for 24 h
Protocol: The stability of 2-QBA in mouse plasma was tested in terms of its benchtop stability, freeze–thaw stability, and autosampler stability. In all stability tests, three sets of QC samples (3, 100, and 400 ng/mL) were prepared.
The benchtop stability was tested by incubating the samples at 25 °C for 6 h. For the freeze–thaw stability, the samples were placed at −80 °C for over 12 h for freezing and thawed at 25 °C for 6 h as one cycle; the same protocol was repeated for three cycles. Finally, the autosampler stability was tested by placing the prepared QC samples in the autosampler at 6 °C for 24 h. After analyzing all of the stability test samples, the concentrations were calculated using freshly prepared calibration standards.

CL renal ([1]; male, ICR, mouse, urine): 5.47 ± 2.22 mL/min/kg
Amount excreted in feces for 96 h ([1]; parent form): 9.30 ± 6.17 % of dose
Amount excreted in urine for 96 h ([1]; parent form): 13.8 ± 4.24 % of dose
absorptive permeability class compared with marker compounds ([2]; jejunum): moderate to high
Papp A→B at 2 h, 20 μM ([2]; mouse, 20 μM donor, HBSS pH 7.4, range over jejunum, read-out: absorptive permeability): 4.46 to 10 ×10⁻⁶ cm/s
fraction unbound (Plasma protein binding): 0.128
Freeze-thaw cycle stability, Accuracy ([3]; nominal 100 ng/mL): 104.3%
Freeze-thaw cycle stability, Accuracy ([3]; nominal 400 ng/mL): 106.4%
Bench-top stability, Accuracy ([3]; nominal 3 ng/mL): 98.51%
Bench-top stability, Accuracy ([3]; nominal 100 ng/mL): 89.14%
Bench-top stability, Accuracy ([3]; nominal 400 ng/mL): 91.55%
Autosampler stability, Accuracy ([3]; nominal 3 ng/mL): 109.5%
Autosampler stability, Accuracy ([3]; nominal 100 ng/mL): 103.1%
Autosampler stability, Accuracy ([3]; nominal 400 ng/mL): 108.7%
SMILES: O=C(O)c1ccccc1NC(=O)c1cccc2cccnc12 [2-QBA, 2-(quinoline-8-carboxamido)benzoic acid]
